Laboratory results as given in patent US9982265B2, “Inhibition of Bruton's tyrosine kinase (Btk) in the lung to treat severe lung inflammation and lung injury” (BOARD OF REGENTS, THE UNIVERSITY OF TEXAS SYSTEM, priority 2014, dated 2018).

Assays:
[1] = system: ApoE−/− mice fed Western Diet and exposed to SHS; assay: Second hand smoke-induced emphysema/COPD model, PicroSirius Red and Hart's Elastin lung staining; format: in vivo; conditions: i.v. twice a week for 4 weeks, FIG. 18, 19
Description: Second Hand Smoke (SHS)-Induced COPD: Chronic exposure of mice to SHS induces abnormal pulmonary inflammation, airway remodeling and airspace enlargement due to destruction of alveolar walls which are characteristic of COPD (Pappas et al., supra). The present studies used both wild-type (WT) mice exposed to SHS and apolipoprotein E-(ApoE^−/−)-genetically deficient mice to study comorbidities of COPD. The targeted deletion of the apoE gene leads to severe hypercholesterolemia and spontaneous atherosclerosis. Lesions of ApoE^−/− mice resemble their human counterparts and develop over time from initial fatty streaks to complex lesions. (A high-fat, high-cholesterol diet can strongly accelerate the process.) Exposure of ApoE^−/− mice to SHS triggers characteristic decline of lung function that is seen in patients with COPD (Arunachalam, G. et al., supra). ApoE^−/− mice were fed a regular diet (control) and a high fat/cholesterol (1%) diet to shorten the time required for the development of atherosclerosis.
WT and ApoE^−/− diet groups were divided into equal subgroups: control and SHS. SHS groups were exposed to cigarette smoke for 4 h per day, 5 days a week, for up to 20 weeks. A Teague TE-10 microprocessor-controlled smoking machine was used to produce side stream mixed with a smaller amount of main stream smoke. […] TSP values were measured twice a week or as necessary. […]

[2] = system: mice with anti-KC:KC IC ALI; assay: anti-KC:KC IC model of ALI, Lung Injury Score; format: in vivo; conditions: Table 4; mice immunized with KC then given KC; score 0 to 2; means ± SD, 3 animals per group
Experimental: Anti-KC:KC immune complexes were prepared according to the protocol routinely used in our laboratory (28). Some mice received Btk specific siRNA intranasally. In other experiments the animals were treated i.n. with siRNA specific for Btk (see SEQ ID NOs:18-25) or MMP-9 (Invitrogen), both conjugated (T3™-MAX Conjugation Kit (Bioo Scientific Corporation, Austin, Tex.) to F(ab′)2 fragments of anti-mouse neutrophil antibody Ly-6G1A8). F(ab′)2 fragments alone or conjugated to control siRNA (SEQ ID NO's 26 and 27) (Invitrogen) served as controls of the treatment. Two or fourteen hours after i.n. administration of either immune complexes or saline, the animals were euthanized and samples collected for further evaluation. To study role of neutrophil FcγRIII receptors neutrophils were first depleted by i.p. injection of vinblastine (31) followed by adoptive transfer of cells deficient in FcγRIII receptors prepared as described below. […] Lung dysfunction was assessed by analysis of pulmonary histopathology.
Pulmonary Histopathology: Lungs were fixed in ExCellPlus (AMTS, Lodi, Calif.), embedded in paraffin, and sectioned at 5 μm. […] The images of stained sections were evaluated for the presence of alveolar exudate, infiltration of inflammatory cells, and interstitial thickening. Lung Injury Score (LIS) was assessed as described earlier (28). Most images were assessed at magnification of over 400×. […] At the minimum twenty sections from each group of mice were evaluated and 4 investigators participated in the analysis of 50 or more fields per group. According to recommendation of “An Official American Thoracic Society Workshop Report: Features and Measurements of Experimental Acute Lung Injury in Animals” (Am J Respir Cell Mol Biol 44 725-738, 2011) more than 20 high power fields were independently scored (as described above) and at least 50% of each field was occupied by lung alveoli. […]

## C=CC(=O)N1CCC[C@@H](n2nc(-c3ccc(Oc4ccccc4)cc3)c3c(N)ncnc32)C1 [PCI-32765, 1-[(3R)-3-[4-amino-3-(4-phenoxyphenyl)-pyrazolo[3,4-d]pyrimidin-1-yl]piperidin-1-yl]prop-2-en-1-one]
[1]
  effect on symptoms of emphysema/COPD: dramatic protective effect

## CC[C@]1(O)C[C@@H]2CN(CCc3c([nH]c4ccccc34)[C@@](C(=O)OC)(c3cc4c(cc3OC)N(C)[C@H]3[C@@](O)(C(=O)OC)[C@H](OC(C)=O)[C@]5(CC)C=CCN6CC[C@]43[C@@H]65)C2)C1 [vinblastine]
[2]
  Lung Injury Score: Edema fluid: 0.033 ± 0.029
  Lung Injury Score: Inflammatory infiltration: 0.167 ± 0.029
  Lung Injury Score: Thickening of alveolar septa: 0.133 ± 0.153
